ChEMBL document CHEMBL1201862, “PubChem BioAssay data set” (2004)
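Results reflect a 48-hour exposure of cells in 96-well plates to compound at five concentrations. The concentration for 50% growth inhibition is given as GI50.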 Calls of active or inactive are those of the source. Rule as the data show it: active = GI50 up to about 1.1 µM and inactive = higher.

What was measured:
Experiment in all cases: DTP human tumour cell line panel, 48 h
BT-549 = system: BT-549
HOP-62 = system: HOP-62
HOP-92 = system: HOP-92
HT-29 = system: HT-29
IGROV-1 = system: IGROV-1
K562 = system: K562
KM12 = system: KM12
MDA-MB-435 = system: MDA-MB-435
NCI-H460 = system: NCI-H460
NCI-H522 = system: NCI-H522
OVCAR-3 = system: OVCAR-3
OVCAR-5 = system: OVCAR-5
SK-MEL-28 = system: SK-MEL-28
SK-MEL-2 = system: SK-MEL-2
SK-MEL-5 = system: SK-MEL-5
SK-OV-3 = system: SK-OV-3
T47D = system: T47D
U-251 = system: U-251
UACC-62 = system: UACC-62
UO-31 = system: UO-31

Measured: GI50

COc1ccc(C(=O)/C=C2\C(=O)Nc3ccc(Br)cc32)cc1
inactive: BT-549 5.75 µM | HOP-62 10.4 µM | HOP-92 3.24 µM | HT-29 1.82 µM | IGROV-1 2.84 µM | K562 5.07 µM | KM12 3.21 µM | MDA-MB-435 6.75 µM | NCI-H460 10 µM | NCI-H522 4.03 µM | OVCAR-3 2.97 µM | OVCAR-5 19.3 µM | SK-MEL-28 10.5 µM | SK-MEL-2 16.1 µM | SK-MEL-5 18.4 µM | SK-OV-3 15.6 µM | T47D 11.5 µM | U-251 14.2 µM | UACC-62 13.9 µM | UO-31 2.24 µM

CC(=O)Oc1ccc2c(c1)c1c(=O)oc(C)nc1n2Cc1ccccc1
inactive: BT-549 17.4 µM | HOP-62 32.7 µM | HOP-92 34 µM | HT-29 > 89.3 µM | IGROV-1 51.4 µM | K562 50.8 µM | KM12 23.6 µM | MDA-MB-435 28.3 µM | NCI-H460 > 65.2 µM | NCI-H522 12 µM | OVCAR-3 77.6 µM | OVCAR-5 > 84.5 µM | SK-MEL-28 46.2 µM | SK-MEL-2 19.2 µM | SK-MEL-5 40 µM | SK-OV-3 28.7 µM | T47D 33.5 µM | U-251 30.9 µM | UACC-62 16.3 µM | UO-31 2.79 µM

CC1=CN(c2ccccc2)S2=C1c1sc3c(c1N2c1ccc(Br)cc1)CCCC3 (stereo not given)
inactive: BT-549 > 100 µM | HOP-62 > 100 µM | HOP-92 > 100 µM | HT-29 > 100 µM | IGROV-1 > 100 µM | K562 > 100 µM | KM12 > 100 µM | MDA-MB-435 > 100 µM | NCI-H460 > 100 µM | NCI-H522 > 100 µM | OVCAR-3 > 100 µM | OVCAR-5 96.8 µM | SK-MEL-28 > 100 µM | SK-MEL-2 > 100 µM | SK-MEL-5 > 100 µM | SK-OV-3 > 100 µM | T47D 91.2 µM | U-251 > 100 µM | UACC-62 > 100 µM | UO-31 > 100 µM

N#CCCSC(=S)C1CCCC1=N (stereo not given)
inactive: BT-549 > 100 µM | HOP-62 > 100 µM | HOP-92 > 100 µM | HT-29 > 100 µM | IGROV-1 > 100 µM | K562 > 100 µM | KM12 > 100 µM | MDA-MB-435 > 100 µM | NCI-H460 > 100 µM | NCI-H522 > 100 µM | OVCAR-3 > 100 µM | OVCAR-5 > 100 µM | SK-MEL-28 > 100 µM | SK-MEL-2 > 100 µM | SK-MEL-5 > 100 µM | SK-OV-3 > 100 µM | T47D 36 µM | U-251 > 100 µM | UACC-62 > 100 µM | UO-31 > 100 µM

CCOC(=O)c1c(C)c(C)n2c1NC(=O)C2
inactive: BT-549 50.9 µM | HOP-62 > 66.5 µM | HOP-92 > 91.4 µM | HT-29 > 74.3 µM | IGROV-1 > 72.1 µM | K562 > 100 µM | KM12 > 100 µM | MDA-MB-435 > 100 µM | NCI-H460 > 53.1 µM | NCI-H522 > 43.7 µM | OVCAR-3 > 64.4 µM | OVCAR-5 > 100 µM | SK-MEL-28 > 100 µM | SK-MEL-2 > 100 µM | SK-MEL-5 > 100 µM | SK-OV-3 > 100 µM | T47D 21.1 µM | U-251 > 48.1 µM | UACC-62 > 60.3 µM | UO-31 > 64.3 µM

CCOC(=O)c1ccc(NC(=O)O/N=C(/Cl)CC)cc1
inactive: BT-549 19.2 µM | HOP-62 20.4 µM | HOP-92 2.75 µM | HT-29 18.4 µM | IGROV-1 18.5 µM | K562 1.94 µM | KM12 18.4 µM | MDA-MB-435 17.7 µM | NCI-H460 19.5 µM | NCI-H522 2.77 µM | OVCAR-3 1.83 µM | OVCAR-5 18.2 µM | SK-MEL-28 16.4 µM | SK-MEL-2 16.4 µM | SK-MEL-5 16 µM | SK-OV-3 17.9 µM | T47D 7.73 µM | U-251 17.8 µM | UACC-62 21 µM | UO-31 17.5 µM

Cc1ccccc1OC(C)C(=O)NN1C(=O)CC(=O)N(c2ccc(Cl)cc2)C1=S (stereo not given)
inactive: BT-549 37.2 µM | HOP-62 47.9 µM | HOP-92 19.3 µM | HT-29 39.5 µM | IGROV-1 49.9 µM | K562 38.6 µM | KM12 36.3 µM | MDA-MB-435 49.3 µM | NCI-H460 31 µM | NCI-H522 32.3 µM | OVCAR-3 37.1 µM | OVCAR-5 61.2 µM | SK-MEL-28 41.4 µM | SK-MEL-2 27.8 µM | SK-MEL-5 25.1 µM | SK-OV-3 48.2 µM | T47D 34.6 µM | U-251 34.1 µM | UACC-62 27.9 µM | UO-31 41 µM
